The record followed here is EP4799701A2, “PYRIMID-2-YL-PYRAZOLE COMPOUNDS AS IRAK INHIBITORS” (Rigel Pharmaceuticals, Inc., priority 2022, dated 2023).

Structures are written as SMILES. Values joined by “and” are separate entries in the source; they are usually repeats but may differ in a detail not shown here. Equal values may be shown once. Where a name gives a salt, the structure may show the parent alone.

Data set [1] in a line: Rat brain homogenate binding, equilibrium dialysis (RED). The format is in vitro ADME. To be noted: two runs; brain homogenate 1 brain /3 buffer, drug 5 µM; 5 µM. How it is done: Brain and plasma drug binding were performed by equilibrium dialysis using the Rapid Equilibrium Dialysis (RED) device. Briefly, 300 µL of plasma or brain homogenate (1 brain /3 buffer) containing drug (5 µM) was equilibrated (4-18 h) against 500 µL of buffered saline. After incubation, the concentration of drug in plasma/brain homogenate and buffer was determined by LC-MS/MS.
Two runs of rat brain homogenate binding with I-1 compared to Comparison-1. I-1 is approximately 10-fold more free in rat brain than Comparison-1.

Data set [2] relates to TLR4-induced IL-23. In words: LPS induced IL23p19 in THP-1 cells (IFNγ primed), IL-23p19 sandwich ELISA. The format is cell-based, human. The settings on record: THP-1 cells primed with IFNγ, 1 µg/mL LPS, 18 hours; read-out: IL23-p19 ELISA, THP1-IFNy, LPS, 10pt EC50. The text has this: LPS induced IL23p19 in THP-1 cells (with IFNy primed) Assay
THP-1 Cells (ATCC, Cat# TIB-202), Dimethyl Sulfoxide (DMSO) (Sigma-Aldrich, Cat# D2650), RPMI 1640 (Cellgro, Cat# 10-040-CM), Fetal Bovine Serum (Sigma, Cat# F4135), Albumin From Bovine Serum (BSA) (Sigma-Aldrich, Cat#A7906), LPS (Serotype K-235, Sigma, Product Number L 2143), IFNγ (Peprotech, Cat# 300-02), Capture antibody: Human IL-23p19 ELISA (e-Bioscience, Cat. # 14-7238-85), Detection antibody: Primary Mouse Biotinylated anti-human IL-12(p40/p70) (e-Bioscience, Cat. # 13-7129-85), Secondary HRP-conjugated Streptavidin (R&D Systems, Cat#DY998), 1x PBST Washing Buffer (PBS-Tween tablet) (VWR International, Cat#80058-558), ELISA Blocking Buffer (PBS with 1% BSA), ELISA Dilution Buffer (PBS with 1% BSA), 384 Well Flat-Bottom, MaxiSorp Black Immuno Plates (Thermo Scientific, Cat# 12-565-346), 384 Well Flat-Bottom, White Tissue Culture Plates (Thermo Scientific, Cat# 12-565-343), Super Signal ELISA Pico Chemiluminescent Substrate (Thermo Scientific, Cat#37070), Cell Titer Glo reagent (Promega, Cat#G7573), Positive control, IKK2VI inhibitor (Calbiochem, Cat#401483), AquaMax 4000 plate washer (Molecular Devices), Luminometer, Wallac Victor2 1420 Multilabel Counter.
On day 1, 50K/well THP-1 cells were seeded and primed with IFNγ (50ng/mL) in 384-well plates for about 18 hours in RPMI media with 10%FBS. On day 2, the compound was serially diluted in DMSO from 5 mM in 3-fold dilutions, and then diluted 1:125 in RPMI media with 10%FBS. […] IL-23p19 protein in 70 µL/well of supernatant was measured by sandwich ELISA, and 25 µl/well Cell Titer Glo reagent was added to the remaining cells to measure compound toxicity.
Maxisorp immuno ELISA plates were pre-coated with 25 µL/well of anti-IL-23p19 capture antibody (2.5ug/mL) in PBS overnight at room temperature. […] The plates were read with a luminometer, and the chemiluminescence values were entered into Athena (Rigel) for curve fitting, EC50 calculation, and database storage. […]
For orientation: In an ELISA, binding on a coated surface is turned into a signal by an enzyme label.

In the case of `CCO[C@H]1CC[C@H](n2cc(NC(=O)c3csc(-c4cn[nH]c4)n3)c(-c3nc(F)ccc3F)n2)CC1` [Comparison-1, reference compound], in data set [1], the “rat brain homogenate binding (free drug)” value was 0.102% and 0.114%.
The EC50 is the concentration needed to bring the measured effect to its halfway point. For the compound `CCO[C@H]1CC[C@H](n2cc(NC(=O)c3csc(-c4cnn(COP(=O)(O)O)c4)n3)c(-c3ncccn3)n2)CC1` [Compound I-3, sodium (4-(4-((1-((1r,4r)-4-ethoxycyclohexyl)-3-(pyrimidin-2-yl)-1H-pyrazol-4-yl)carbamoyl)thiazol-2-yl)-1H-pyrazol-1-yl)methyl phosphate], in data set [2], the EC50 stood at 54.4 nM.
As to `CCO[C@H]1CC[C@H](n2cc(NC(=O)c3csc(-c4cn[nH]c4)n3)c(-c3ncccn3)n2)CC1` [Compound I-4, N-(1-((1r,4r)-4-ethoxycyclohexyl)-3-(pyrimidin-2-yl)-1H-pyrazol-4-yl)-2-(1H-pyrazol-4-yl)thiazole-4-carboxamide tartaric acid salt], in data set [2], the EC50 is 2.5 nM.
